Reference: PubChem BioAssay (NCI)
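Compound exposure: 48 hours, 5 concentrations, 96-well plates. TGI is the concentration that stops growth completely.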

Experiments:
Test in all cases: NCI tumour cell line growth inhibition, 48 h
DMS 114 small cell lung = test system: DMS 114 small cell lung
DMS 273 small cell lung = test system: DMS 273 small cell lung
KM20L2 colon = test system: KM20L2 colon
LXFL 529 NSCLC = test system: LXFL 529 NSCLC
M19-MEL melanoma = test system: M19-MEL melanoma
SNB-78 CNS = test system: SNB-78 CNS
DLD-1 colon = test system: DLD-1 colon
RXF-631 renal = test system: RXF-631 renal
XF 498 CNS = test system: XF 498 CNS
MDA-N = test system: MDA-N
HOP-18 NSCLC = test system: HOP-18 NSCLC
P388 leukemia = test system: P388 leukemia
P388/ADR leukemia = test system: P388/ADR leukemia
SN12K1 renal = test system: SN12K1 renal

SMILES	TGI (DMS 114 small cell lung) [µM]	TGI (DMS 273 small cell lung) [µM]	TGI (KM20L2 colon) [µM]	TGI (LXFL 529 NSCLC) [µM]	TGI (M19-MEL melanoma) [µM]	TGI (SNB-78 CNS) [µM]	TGI (DLD-1 colon) [µM]	TGI (RXF-631 renal) [µM]	TGI (XF 498 CNS) [µM]	TGI (MDA-N) [µM]	TGI (HOP-18 NSCLC) [µM]	TGI (P388 leukemia) [µM]	TGI (P388/ADR leukemia) [µM]	TGI (SN12K1 renal) [µM]
CS/C(=N\C(=S)N(C)C)N(c1ccccc1)c1nc(=[N+](C)C)ss1	2.28	15.4	50.3	15.9	14.8	92.8								
COc1ccc(C2CC(=O)c3c(O)cc(O)cc3O2)cc1O (configuration not stated)	> 100	> 100	> 100	> 100	> 100	> 100	> 100	> 100	> 100					
CN(C)c1ccc2c(=O)c3ccccc3oc2n1	> 100	> 100	> 100	> 100	> 100	> 100	> 100	> 100	> 100					
CCOC(=O)c1ccc2[nH]c(-c3ccc(S(=O)(=O)F)cc3)cc(=O)c2c1										> 100				
COC(=O)[C@@]12C(=O)C=CC(=O)[C@@H]1C1C(=CC2COC(C)=O)O[C@@H]2OC3(CCCCC3)O[C@H]12 (some centres not stated)	13.5	23.6	31.8	15	29.6	51	22.7	50	26.3	25.1	24.9			
COc1ccccc1/C=C(\C#N)c1ccccc1	46.2	50	> 100	> 100	> 100	> 100	> 100				> 100			
CN1C(=O)CC(c2cccc(C3CC(=O)N(C)C3=O)n2)C1=O (configuration not stated)	> 100	> 100	> 100	> 100	> 100	> 100	> 100				> 100			
CC(C)[C@]12O[C@H]1[C@@H]1O[C@]13[C@]1(O[C@H]1C[C@H]1C4=C(CC[C@@]13C)C(=O)OC4)[C@@H]2O										0.0238				
NC(=O)NNCc1ccccc1										> 100				
Cc1ccccc1NC(=O)C(=O)C(C#N)c1ccc(Cl)cc1 (configuration not stated)	> 100	> 100	> 100	> 100		> 100	> 100	> 100	> 100		> 100			
COc1ccc(C(=O)c2cc(OC)c(OC)c(OC)c2)cc1	> 100	> 100		> 100	> 100		> 100	> 100	> 27.7	0.0452	> 100			
CCOc1ccccc1NC(=O)CC1C(=O)Nc2ccccc2S1=O (configuration not stated)	> 100	> 100	> 100	> 100	> 100	> 100	> 100		> 100					
O=C[C@@H](CO)O[C@H](C=O)c1c[nH]c(=O)[nH]c1=O	232	265	310		406	890	493		86.7	307	267	307	373	183
CCCCCCCCCCCCNC(C)=O										31				
Cc1ccc(S(=O)(=O)OC2CCN(C)CC2)cc1										> 100				
O=C(O)C/C(=C\c1ccco1)C(=O)O										> 100				
O=C(Nc1ccccc1-c1n[nH]c(=S)[nH]c1=O)C(F)(F)F	> 100	> 100		> 100	> 100	> 100	> 100		> 100					
Clc1ncnc(Cl)c1Cl										> 100				
Cc1ccc(S(=O)(=O)N[C@H](C(=O)O)c2ccccc2)cc1		> 100	> 100	> 100	> 100		> 100	> 100	> 100		> 100			
Cc1cn(Cc2ccccc2CCO)c(=S)[nH]c1=O	> 100	> 100	> 100	> 100	> 100			> 100	> 100		> 100			
CC(C)(C)OC1=C(OC(C)(C)C)C(O)(c2ccccc2)C1=O (configuration not stated)	> 100	> 100		> 100	> 100	> 100	> 100	> 100			> 100			
